Values after ≈ are worked out from the molar mass of the structure shown.
How the values were obtained:
E. coli (ATCC 25922) = experiment: Minimal Inhibitory Concentration (MIC) assay, E. coli; format: cell-based; conditions: Escherichia coli, ATCC25922; E. coli ATCC 25922, CAMHB, 20 hours at 35° C.; read-out: MIC E. coli ATCC 25922
Method: (§1) Example 122: Minimal Inhibitory Concentration Protocol (MIC) Assay
(§2) The in vitro potency of compounds to inhibit E. coli (ATCC 25922) and K. pneumonia (ATCC 43816) growth was assessed by MIC (Minimal Inhibitory Concentration) assay. Samples were prepared from 10 mM DMSO stock solutions. After serial 2-fold dilution in DMSO in a master plate (Greiner, Cat No: 651201), 180 μL sterile distilled water was added to 20 μL each aliquot of the samples. Then 10 μL diluted compounds were transferred into a new assay plate (Costar, 3599).
(§3) The growth medium Cation-Adjusted Mueller Hinton Broth (CAMHB) was prepared by adding the 20 mg per liter CaCl2) and 20 mg per liter MgCl2 into the MHB medium (Jianglai Company, sterilized).
(§4) Vials of each of the test microorganisms were maintained frozen in the vapor phase of a liquid nitrogen freezer. The bacteria E. coli ATCC 25922 (KWIKSTIK, 0335K) and K. pneumonia ATCC 43816 were taken out from liquid nitrogen freezer, then thawed in room temperature, and diluted in the CAMHB medium to achieve a final inoculum of 5×10^5 CFU/mL. 90 μL CAMHB with bacteria was dispensed to the assay plate and pipetted 5 times.
(§5) Then the assay plates were incubated for 20 hours at 35° C. in ambient air. Following incubation, the MIC (μg/mL), the lowest concentration of drug that inhibits visible growth of the microorganism was read and recorded throw the microscope.

[1] = test system: K. pneumonia (ATCC 43816); experiment: Minimal Inhibitory Concentration (MIC) assay, K. pneumonia; format: cell-based; conditions: Klebsiella pneumoniae; K. pneumoniae ATCC43816, CAMHB, 20 hours at 35° C.; read-out: MIC K. pneumoniae ATCC43816
Method: as §1, §2, §3, §4, §5

Row | MIC (E. coli (ATCC 25922)) | MIC [1] | SMILES
1 | 1.22 µg/mL (≈ 2.21 µM) | 1.22 µg/mL (≈ 2.21 µM) | NC1CC(=O)N(c2ccc(S(=O)(=O)N3CCN(c4cc(C5(c6ccccc6)CC5)cc(Cl)n4)CC3)cc2)C1 (stereo not shown) [Example 75, 4-Amino-1-[4-[4-[6-chloro-4-(1-phenylcyclopropyl)-2-pyridyl]piperazin-1-yl]sulfonylphenyl]pyrrolidin-2-one]
2 | 0.93 µg/mL (≈ 1.67 µM) | 1.9 µg/mL (≈ 3.42 µM) | N[C@@H]1CC(=O)N(c2ccc(S(=O)(=O)N3CCN(c4cc(C(F)(F)C5C[C@H]5CO)cc(Cl)n4)CC3)cc2)C1 (stereo partly drawn) [Example 117, (4R)-4-amino-1-[4-[4-[6-chloro-4-[trans-difluoro-[2-(hydroxymethyl)cyclopropyl]methyl]-2-pyridyl]piperazin-1-yl]sulfonylphenyl]pyrrolidin-2-one]
3 | 1.91 µg/mL (≈ 3.33 µM) | 5.71 µg/mL (≈ 9.96 µM) | O=C1CC(N2CCNCC2)CN1c1ccc(S(=O)(=O)N2CCN(c3cc(C(F)(F)F)cc(Cl)n3)CC2)cc1 (stereo not shown) [Example 47, 1-[4-[4-[6-Chloro-4-(trifluoromethyl)-2-pyridyl]piperazin-1-yl]sulfonylphenyl]-4-piperazin-1-yl-pyrrolidin-2-one]
4 | 0.9 µg/mL (≈ 1.56 µM) | 1.8 µg/mL (≈ 3.11 µM) | Cc1cnc(C(F)(F)c2cc(Cl)nc(N3CCN(S(=O)(=O)c4ccc(N5C[C@H](N)CC5=O)cc4)CC3)c2)cn1 [Example 111, (4R)-4-amino-1-[4-[4-[6-chloro-4-[difluoro-(5-methylpyrazin-2-yl)methyl]-2-pyridyl]piperazin-1-yl]sulfonylphenyl]pyrrolidin-2-one]
5 | 3.76 µg/mL (≈ 7.71 µM) | 7.52 µg/mL (≈ 15.4 µM) | [2H]C([2H])([2H])c1cc(C(F)(F)F)nc(N2CCN(S(=O)(=O)c3ccc(N4CC(N)CC4=O)cc3)CC2)n1 (stereo not shown) [Example 66, 4-Amino-1-[4-[4-[4-(trideuteriomethyl)-6-(trifluoromethyl)pyrimidin-2-yl]piperazin-1-yl]sulfonylphenyl]pyrrolidin-2-one]
6 | 4.36 µg/mL (≈ 7.81 µM) | 6.98 µg/mL (≈ 12.5 µM) | COc1nc(N2CCN(S(=O)(=O)c3ccc(N4CC(N)CC4=O)cc3)CC2)cc(C(F)(F)c2ccccc2)n1 (stereo not shown) [Example 81, 4-Amino-1-[4-[4-[6-[difluoro(phenyl)methyl]-2-methoxy-pyrimidin-4-yl]piperazin-1-yl]sulfonylphenyl]pyrrolidin-2-one]
7 | 0.26 µg/mL (≈ 0.424 µM) | 0.51 µg/mL (≈ 0.833 µM) | Cc1nc(C(F)(F)c2cc(Cl)nc(N3CCN(S(=O)(=O)c4ccc(N5C[C@H](N)CC5=O)cc4)CC3)c2)cnc1Cl [Example 113, (4R)-4-amino-1-[4-[4-[6-chloro-4-[(5-chloro-6-methyl-pyrazin-2-yl)-difluoro-methyl]-2-pyridyl]piperazin-1-yl]sulfonylphenyl]pyrrolidin-2-one]
8 | 7.74 µg/mL (≈ 15.3 µM) | 15.5 µg/mL (≈ 30.6 µM) | NC1CC(=O)N(c2ccc(S(=O)(=O)N3CCN(c4cc(C(F)(F)F)cc(Cl)n4)CC3)cn2)C1 (stereo not shown) [Example 62, 4-Amino-1-[5-[4-[6-chloro-4-(trifluoromethyl)-2-pyridyl]piperazin-1-yl]sulfonyl-2-pyridyl]pyrrolidin-2-one]
9 | 1.26 µg/mL (≈ 2.19 µM) | 1.26 µg/mL (≈ 2.19 µM) | NCC1CCC(=O)N1c1ccc(S(=O)(=O)N2CCN(c3cc(C(F)(F)c4ccccc4)cc(Cl)n3)CC2)cc1 (stereo not shown) [Example 86, 5-(Aminomethyl)-1-[4-[4-[6-chloro-4-[difluoro(phenyl)methyl]-2-pyridyl]piperazin-1-yl]sulfonylphenyl]pyrrolidin-2-one]
10 | 1.18 µg/mL (≈ 2.24 µM) | 1.18 µg/mL (≈ 2.24 µM) | NC1CC(=O)N(c2ccc(S(=O)(=O)N3CCN(c4cc(Cc5ccccc5)cc(Cl)n4)CC3)cc2)C1 (stereo not shown) [Example 74, 4-Amino-1-[4-[4-(4-benzyl-6-chloro-2-pyridyl)piperazin-1-yl]sulfonylphenyl]pyrrolidin-2-one]
11 | 0.5 µg/mL (≈ 0.837 µM) | 0.99 µg/mL (≈ 1.66 µM) | NC[C@H]1CC[C@H](C(F)(F)c2cc(Cl)nc(N3CCN(S(=O)(=O)c4ccc(N5C[C@H](N)CC5=O)cc4)CC3)c2)CC1 [Example 118, (4R)-4-amino-1-[4-[4-[4-[[trans-4-(aminomethyl)cyclohexyl]-difluoro-methyl]-6-chloro-2-pyridyl]piperazin-1-yl]sulfonylphenyl]pyrrolidin-2-one]
12 | 0.91 µg/mL (≈ 1.56 µM) | 1.8 µg/mL (≈ 3.08 µM) | C[C@H]1CNCC(C(F)(F)c2cc(Cl)nc(N3CCN(S(=O)(=O)c4ccc(N5C[C@H](N)CC5=O)cc4)CC3)c2)O1 (stereo partly drawn) [Example 114, (4R)-4-amino-1-[4-[4-[6-chloro-4-[difluoro-[cis-6-methylmorpholin-2-yl]methyl]-2-pyridyl]piperazin-1-yl]sulfonylphenyl]pyrrolidin-2-one]
13 | 1.91 µg/mL (≈ 3.33 µM) | 3.81 µg/mL (≈ 6.65 µM) | NC1CCN(C2CC(=O)N(c3ccc(S(=O)(=O)N4CCN(c5cc(C(F)(F)F)cc(Cl)n5)CC4)cc3)C2)C1 (stereo not shown) [Example 50, 4-(3-Aminopyrrolidin-1-yl)-1-[4-[4-[6-chloro-4-(trifluoromethyl)-2-pyridyl]piperazin-1-yl]sulfonylphenyl]pyrrolidin-2-one]
14 | 2.29 µg/mL (≈ 3.71 µM) | 2.29 µg/mL (≈ 3.71 µM) | O=C1CC2(CNCCN2)CN1c1ccc(S(=O)(=O)N2CCN(c3cc(C(F)(F)c4ccccc4)cc(Cl)n3)CC2)cc1 (stereo not shown) [Example 85, 2-[4-[4-[6-Chloro-4-[difluoro(phenyl)methyl]-2-pyridyl]piperazin-1-yl]sulfonylphenyl]-2,6,9-triazaspiro[4.5]decan-3-one]
15 | 30.4 µg/mL (≈ 50 µM) | 60.9 µg/mL (≈ 100 µM) | O=C1O[C@@H]2[C@@H](O)[C@H](CO)[C@@H](O)O[C@@H]2N1c1ccc(S(=O)(=O)N2CCN(c3cc(C(F)(F)F)cc(Cl)n3)CC2)cc1 [Example 23, (3aS,5S,6S,7S,7aR)-3-[4-[4-[6-chloro-4-(trifluoromethyl)-2-pyridyl]piperazin-1-yl]sulfonylphenyl]-5,7-dihydroxy-6-(hydroxymethyl)-5,6,7,7a-tetrahydro-3aH-pyrano[2,3-d]oxazol-2-one]
16 | 0.47 µg/mL (≈ 0.829 µM) | 0.94 µg/mL (≈ 1.66 µM) | N[C@@H]1CC(=O)N(c2ccc(S(=O)(=O)N3CCN(c4cc(C(F)(F)C56CNC[C@H]5C6)cc(Cl)n4)CC3)cc2)C1 (stereo partly drawn) [Example 116, (4R)-4-amino-1-[4-[4-[4-[[cis-3-azabicyclo[3.1.0]hexan-1-yl]-difluoro-methyl]-6-chloro-2-pyridyl]piperazin-1-yl]sulfonylphenyl]pyrrolidin-2-one]
17 | 3.74 µg/mL (≈ 7.72 µM) | 7.48 µg/mL (≈ 15.4 µM) | Cc1cc(C(F)(F)F)nc(N2CCN(S(=O)(=O)c3ccc(N4CC(N)CC4=O)cc3)CC2)n1 (stereo not shown) [Example 65, 4-Amino-1-[4-[4-[4-methyl-6-(trifluoromethyl)pyrimidin-2-yl]piperazin-1-yl]sulfonylphenyl]pyrrolidin-2-one]
18 | > 28.4 µg/mL | > 28.4 µg/mL | NC1CC(=O)N(c2ccc(S(=O)(=O)N3CCN(c4nc(C5CC5)cc(C(F)(F)c5ccccc5)n4)CC3)cc2)C1 (stereo not shown) [Example 80, 4-Amino-1-[4-[4-[4-cyclopropyl-6-[difluoro(phenyl)methyl]pyrimidin-2-yl]piperazin-1-yl]sulfonylphenyl]pyrrolidin-2-one]
19 | 0.22 µg/mL (≈ 0.391 µM) | 1.76 µg/mL (≈ 3.13 µM) | NC1CC(=O)N(c2ccc(S(=O)(=O)N3CCN(c4nc(Cl)cc(C(F)(F)c5ccccc5)n4)CC3)cc2)C1 (stereo not shown) [Example 78, 4-Amino-1-[4-[4-[4-chloro-6-[difluoro(phenyl)methyl]pyrimidin-2-yl]piperazin-1-yl]sulfonylphenyl]pyrrolidin-2-one]
20 | 0.97 µg/mL (≈ 1.66 µM) | 1.9 µg/mL (≈ 3.25 µM) | CC1COC(C(F)(F)c2cc(Cl)nc(N3CCN(S(=O)(=O)c4ccc(N5C[C@H](N)CC5=O)cc4)CC3)c2)CN1 (stereo partly shown) [Example 115]
